According to patent EP1167342A1, “Novel substituted nitrocatechols, their use in the treatment of some central and peripheral nervous system disorders and pharmaceutical compositions containing them” (Portela & Ca., S.A., priority 2000, dated 2002):

How the values were obtained:
Liver COMT = test: Ex vivo COMT activity in mouse liver homogenates after administration of test compound by gastric tube; parameters: species or system NMRI mice; settings: for Liver COMT (% of control) 1h / Liver COMT (% of control) 6h: homogenates of mice liver, dose not given, means±S.E.M. of 4-8 experiments; for Liver COMT (% of control) 1h: 1 h after administration by gastric tube; for Liver COMT (% of control) 6h: 6 h after administration by gastric tube; for potency upon liver COMT compared with brain COMT: mice, after oral administration, statement in words
COMT = target: T1, COMT (Homo sapiens, UniProt P21964); test: COMT activity in intact SK-N-SH cells (methylation of adrenaline to metanephrine, HPLC with electrochemical detection); format: cell-based; settings: concentration of test compound 100 nM, means ±SEM of n=4-8
T1 construct: COMT activity was evaluated in cell monolayers by the ability to methylate adrenaline; host or cells: SK-N-SH
T1 sequence (P21964 1-271): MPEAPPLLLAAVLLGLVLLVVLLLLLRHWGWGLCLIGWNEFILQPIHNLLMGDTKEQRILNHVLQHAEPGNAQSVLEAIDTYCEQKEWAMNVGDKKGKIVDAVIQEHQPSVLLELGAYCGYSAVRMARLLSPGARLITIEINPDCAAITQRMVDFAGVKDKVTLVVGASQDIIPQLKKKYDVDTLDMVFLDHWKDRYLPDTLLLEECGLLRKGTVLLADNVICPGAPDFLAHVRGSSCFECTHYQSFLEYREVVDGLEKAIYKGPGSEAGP

Brain COMT = test: Ex vivo COMT activity in mouse brain homogenates after administration of test compound by gastric tube; parameters: species or system NMRI mice; settings: for Brain COMT (% of control) 1h / Brain COMT (% of control) 6h: homogenates of mice brain, dose not given, means±S.E.M. of 4-8 experiments; for Brain COMT (% of control) 1h: 1 h after administration by gastric tube; for Brain COMT (% of control) 6h: 6 h after administration by gastric tube

Row | SMILES | Liver COMT (% of control) 1h (Liver COMT) | Liver COMT (% of control) 6h (Liver COMT) | potency upon liver COMT compared with brain COMT (Liver COMT) | COMT activity (% of control) (COMT) | Brain COMT (% of control) 1h (Brain COMT) | Brain COMT (% of control) 6h (Brain COMT) | activity in the brain (Brain COMT; conclusion, statement in words)
1 | Cl.O=C(CCN1CCCCCCC1)c1cc(O)c(O)c([N+](=O)[O-])c1 [Compound 16, 3-Azocan-1-yl-1-(3,4-dihydroxy-5-nitro-phenyl)-propan-1-one hydrochloride] | 22.1±3.4 % of control | 71.7±21.6 % of control | equally potent in inhibiting liver and brain COMT activity | 3.2±0.2 % of control | 25.0±13.0 % of control | 95.0±12.0 % of control | 
2 | CCOC(=O)C1CCN(CCC(=O)c2cc(O)c(O)c([N+](=O)[O-])c2)CC1.Cl [Compound 17, 1-[3-(3,4-Dihydroxy-5-nitro-phenyl)-3-oxo-propyl]-piperidine-4-carboxylic acid ethyl ester hydrochloride] | 36.8±2.3 % of control | 69.6±8.9 % of control |  | 7.7±0.5 % of control | 96.0±5.0 % of control | 109.0±14.0 % of control | 
3 | Cl.Cl.O=C(CCN1CCN(c2cccc(C(F)(F)F)c2)CC1)c1cc(O)c(O)c([N+](=O)[O-])c1 [Compound 18, 1-(3,4-Dihydroxy-5-nitro-phenyl)-3-[4-(3-trifluoromethyl-phenyl)-piperazin-1-yl]-propan-1-one dihydrochloride] | 18.5±6.8 % of control | 26.3±3.9 % of control | much more potent upon liver COMT than brain COMT | 4.2±0.2 % of control | 86.0±14.0 % of control | 86.0±11.0 % of control | limited activity in the brain
4 | Cl.O=C(CCN1CCSCC1)c1cc(O)c(O)c([N+](=O)[O-])c1 [Compound 19, 1-(3,4-Dihydroxy-5-nitro-phenyl)-3-thiomorpholin-4-yl-propan-1-one hydrochloride] | 30.3±4.0 % of control | 57.9±8.6 % of control |  | 6.8±2.3 % of control | 93.0±19.0 % of control | 107.0±3.0 % of control | 
5 | Cl.O=C(CCN1CCCCCC1)c1cc(O)c(O)c([N+](=O)[O-])c1 [Compound 20, 3-Azepan-1-yl-1-(3,4-dihydroxy-5-nitro-phenyl)-propan-1-one hydrochloride] | 39.0±2.0 % of control | 64.0±12.0 % of control |  | 3.6±0.3 % of control | 106.0±9.0 % of control | 125.0±5.0 % of control | 
6 | Cl.O=C(CN1CCc2ccccc2C1)c1cc(O)c(O)c([N+](=O)[O-])c1 [Compound 21, 2-(3,4-Dihydro-1H-isoquinolin-2-yl)-1-(3,4-dihydroxy-5-nitro-phenyl)-ethanone hydrochloride] | 55.1±5.0 % of control | 77.5±18.0 % of control |  | 0.9±0.6 % of control | 96.0±8.0 % of control | 104.0±17.0 % of control | 
7 | Cl.Cl.O=C(CCN1CCN(c2ccccc2Cl)CC1)c1cc(O)c(O)c([N+](=O)[O-])c1 [Compound 22, 3-[4-(2-Chloro-phenyl)-piperazin-1-yl]-1-(3,4-dihydroxy-5-nitro-phenyl)-propan-1-one dihydrochloride] | 54.2±7.5 % of control | 71.7±0.4 % of control |  | 0.0±0.0 % of control | 94.0±3.0 % of control | 96.0±18.0 % of control | 
8 | Cl.Cl.Cl.Cl.O=C(CCN1CCN(c2ncccn2)CC1)c1cc(O)c(O)c([N+](=O)[O-])c1 [Compound 23, 1-(3,4-Dihydroxy-5-nitro-phenyl)-3-(4-pyrimidin-2-yl-piperazin-1-yl)-propan-1-one tetrahydrochloride] | 30.0±2.5 % of control | 56.3±6.0 % of control |  | 4.4±0.9 % of control | 87.0±6.0 % of control | 123.0±12.0 % of control | 
9 | Cl.O=C(CCN1CCC(Cc2ccccc2)CC1)c1cc(O)c(O)c([N+](=O)[O-])c1 [Compound 24, 3-(4-Benzyl-piperidin-1-yl)-1-(3,4-dihydroxy-5-nitro-phenyl)-propan-1-one hydrochloride] | 16.5±1.5 % of control | 37.7±3.9 % of control |  | 0.0±0.0 % of control | 33.0±8.0 % of control | 98.0±2.0 % of control | 
10 | O=C(COc1cccc2ccccc12)c1cc(O)c(O)c([N+](=O)[O-])c1 [Compound 25, 1-(3,4-Dihydroxy-5-nitro-phenyl)-2-(naphthalen-1-yloxy)-ethanone] | 13.7±1.9 % of control | 31.1±5.5 % of control |  | 0.0±0.0 % of control | 62.8±5.1 % of control | 92.4±10.8 % of control | 
11 | CC1CCCCN1CCC(=O)c1cc(O)c(O)c([N+](=O)[O-])c1.Cl (stereo not shown) [Compound 26, 1-(3,4-Dihydroxy-5-nitro-phenyl)-3-(2-methyl-piperidin-1-yl)-propan-1-one hydrochloride] | 18.3±2.9 % of control | 55.2±4.7 % of control |  | 4.8±0.4 % of control | 69.8±3.2 % of control | 89.6±13.4 % of control | 
